From patent publication US20230233695A1, “MITHRAMYCIN A NANOPARTICLES FOR CANCER TREATMENT” (priority 2021, published 2023)
Like-named read-outs stand apart in the source and are kept apart here.

Assays:
HEK293.T = experiment: XTT cell viability assay, HEK293.T; format: cell-based; details: Homo sapiens, HEK-293T, 72 h, read-out: Viability IC50
Experimental: (§1) Cell viability assays. For viability assays, four EWS:Fli1 fusion tumor cell lines (RD-ES, SK-ES-1, A673, and TC-71), one human embryonic kidney cell line (293.T), one ES tumor cell line with ERG fusion (CHLA-25), one fetal kidney cell line (HEK293.T), one hepatoblastoma cell line (HepG2), one chronic myeloid leukemia (MEG-01), and one acute monocytic leukemia (THP-1) cell line were plated at 5000 cells/well in 100 μL growth media in 96-well plates. After overnight incubation, 50 μL of growth media containing mithramycin A (MithA) (Cayman Chemical, Ann Arbor, Mi. Item Number 11434) or boronic acid-conjugated nano-MithA (MANP) (0.12 nM to 500 nM, final) or dimethyl sulfoxide (DMSO, 0.01% v/v) vehicle was added to the wells, and cell viability assays were performed 72 hours later. The cells were incubated with the activated-XTT solution (mixture of 2% final concentration of activation reagent with the XTT reagent) from ATCC (Catalog Number 30-1011K, XTT Cell Proliferation Assay Kit) for 3 hours prior to recording absorbance. The cell viability was determined by measuring the absorbance wavelength at 475 nm and reference wavelength at 650 nm on an Infinite M200 plate reader (Tecan Group, Ltd. Mannedorf, Switzerland). […]

MEG-01 = experiment: XTT cell viability assay, MEG-01; format: cell-based; details: read-out: Viability IC50, MEG-01, chronic myeloid leukemia, BRC:ABL, 72 hours
Experimental: as §1

HepG2 = experiment: XTT cell viability assay, HepG2; format: cell-based, human
Experimental: as §1

EWS:Fli1+ cells = experiment: XTT cell viability assay, average over EWS:Fli1+ cell lines; format: cell-based; details: read-out: average IC50 against EWS:Fli1+ cells
Experimental: as §1

## CO[C@H](C(=O)[C@@H](O)[C@@H](C)O)[C@@H]1Cc2cc3cc(O[C@H]4C[C@@H](O[C@H]5C[C@@H](O)[C@H](O)[C@@H](C)O5)[C@H](O)[C@@H](C)O4)c(C)c(O)c3c(O)c2C(=O)[C@H]1O[C@H]1C[C@@H](O[C@H]2C[C@@H](O[C@H]3C[C@](C)(O)[C@H](O)[C@@H](C)O3)[C@@H](O)[C@@H](C)O2)[C@H](O)[C@@H](C)O1 [MithA, (2S,3S)-2-[(2S,4R,5R,6R)-4-[(2S,4R,5S,6R)-4-[(2S,4S,5R,6R)-4,5-dihydroxy-4,6-dimethyloxan-2-yl]oxy-5-hydroxy-6-methyloxan-2-yl]oxy-5-hydroxy-6-methyloxan-2-yl]oxy-3-[(1 S,3S,4R)-3,4-dihydroxy-1-methoxy-2-oxopentyl]-6-[(2S,4R,5R,6R)-4-[(2S,4R,5S,6R)-4,5-dihydroxy-6-methyloxan-2-yl]oxy-5-hydroxy-6-methyloxan-2-yl]oxy-8,9-dihydroxy-7-methyl-3,4-dihydro-2H-anthracen-1-one]
HEK293.T
  IC50: 0.0904 µM
MEG-01
  IC50: 0.0378 µM
HepG2; Homo sapiens, HepG2, 72 h, read-out: Viability IC50, HepG2, hepatoblastoma
  IC50: 0.0249 µM
HepG2; read-out: Viability IC50, HepG2, hepatoblastoma, 72 hours
  IC50: 0.0249 µM
EWS:Fli1+ cells
  IC50: 0.01 µM
